pIC50: −log10 of the molar value. A value given as a limit tells only on which side of the number the result lay.

One assay has as its target T1, recombinant homomeric hASIC1a channels (Homo sapiens, UniProt P78348).
T1 construct: expressed in transfected cells; host or cells: Xenopus laevis oocytes (nuclear microinjection of expression vector such as pcDNA3)
T1 sequence (P78348 1-528): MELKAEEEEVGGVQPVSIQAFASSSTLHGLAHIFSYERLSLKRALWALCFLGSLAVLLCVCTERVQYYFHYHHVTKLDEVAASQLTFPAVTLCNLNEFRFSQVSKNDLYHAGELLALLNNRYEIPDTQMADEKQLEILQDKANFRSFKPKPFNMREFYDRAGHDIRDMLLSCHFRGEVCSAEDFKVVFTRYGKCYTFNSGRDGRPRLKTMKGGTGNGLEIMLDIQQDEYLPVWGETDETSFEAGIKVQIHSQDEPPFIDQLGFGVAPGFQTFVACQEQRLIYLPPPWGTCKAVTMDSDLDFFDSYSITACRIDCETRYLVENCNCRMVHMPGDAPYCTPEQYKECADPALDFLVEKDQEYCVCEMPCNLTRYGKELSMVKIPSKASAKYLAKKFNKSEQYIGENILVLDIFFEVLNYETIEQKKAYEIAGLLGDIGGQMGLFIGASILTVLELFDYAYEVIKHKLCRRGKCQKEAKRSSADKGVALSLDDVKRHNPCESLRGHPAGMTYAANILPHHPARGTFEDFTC
The experiment in a line: Two-electrode voltage clamp in Xenopus laevis oocytes expressing gated ion channels (Example 4). The assay is classed as cell-based. To be noted: Table 2; generated using oocytes as in Example 4.
For the molecule `COc1cc(F)cc2c(OC3CCN(Cc4ccccc4-c4nnn[nH]4)CC3)cc(C)nc12` [Compound 37, 6-Fluoro-8-methoxy-2-methyl-4-{1-[2-(1H-tetrazol-5-yl)-benzyl]-piperidin-4-yloxy}-quinoline], the pIC50 – broadly, −log10 of the IC50, conventionally taken in molar units – was 5.00 to 7.00.

As for `Cc1cc(OC2CCN(C(C)c3ccccc3)CC2)c2ccccc2n1` (stereo not shown) [Compound 38], the pIC50 was 5.00 to 7.00.

For the molecule `Cc1cc(OC2CCN(C(C)C)CC2)c2cccc(F)c2n1` [Compound 39], the negative logarithm of the IC50 (pIC50) was under 4.52.

Consider `Cc1cc(NC2CCN(Cc3ccccc3)CC2)c2ccccc2n1` [Compound 40], for which the pIC50 is under 4.52.

As to `COc1ccc(CN2CCC(Oc3cc(C)nc4c(F)cccc34)CC2)cc1` [Compound 41], the pIC50 was 5.00 to 7.00.

Regarding `Cc1cc(OC2CCN(Cc3c(F)cccc3C#N)CC2)c2cccc(F)c2n1` [Compound 42], the pIC50 is 5.00 to 7.00.

With `Cc1cc(OC2CCN(Cc3c(F)cccc3C(=O)O)CC2)c2cc(Br)ccc2n1` [Compound 43], the pIC50 is under 4.52.

In the case of `Cc1cc(OC2CCN(Cc3c(F)cccc3C#N)CC2)c2cc(Br)ccc2n1` [Compound 44], the pIC50 is under 4.52.

Take `Cc1cc(OC2CCN(Cc3c(F)cccc3C#N)CC2)c2cc(C#N)ccc2n1` [Compound 45]: the pIC50 is under 4.52.

For `Cc1cc(OC2CCN(Cc3ccccc3)CC2)c2cc(C#N)ccc2n1` [Compound 46], the pIC50 was 4.52 to 4.70.

On to `COc1ccc(CN2CCC(Oc3cc(C)nc4c(F)cccc34)CC2)c(F)c1` [Compound 47], for which the pIC50 is 5.00 to 7.00.

As to `COc1ccc(CN2CCC(Oc3cc(C)nc4ccc(Br)cc34)CC2)cc1` [Compound 48], the negative logarithm of the IC50 (pIC50) is under 4.52.

Take `Cc1cc(OC2CCN(Cc3ccc(O)cc3F)CC2)c2cccc(F)c2n1` [Compound 49]: the pIC50 was 5.00 to 7.00.

Take `Cc1cc(OC2CCN(Cc3ccccc3-c3nnn[nH]3)CC2)c2cccc(F)c2n1` [Compound 50, 4-[1-(2-(1H-tetrazol-5-yl-)benzyl)piperidin-4-yloxy]-8-fluoro2-methylquinoline]: the pIC50 is 5.00 to 7.00.

Turning to `COC(=O)c1ccc(NC(=O)c2ccccc2CN2CCC(Oc3cc(C)nc4c(F)cccc34)CC2)cc1` [Compound 51], the pIC50 is 4.70 to 5.00.

As for `Cc1cc(OC2CCN(Cc3ccccc3C#N)CC2)c2cc(OC3CCCCO3)ccc2n1` (stereo not shown) [Compound 52], the pIC50 is under 4.52.

As to `Cc1cc(OC2CCN(Cc3ccccc3C(=O)Nc3ccc(C(=O)O)cc3)CC2)c2cccc(F)c2n1` [Compound 54], the pIC50 is 5.00 to 7.00.

With `Cc1cc(OC2CCN(Cc3ccccc3)CC2)c2cc(-c3cccc(F)c3)ccc2n1` [Compound 55], the pIC50 is under 4.52.

Regarding `Cc1cc(OC2CCN(Cc3ccccc3-c3nnn[nH]3)CC2)c2cc(O)ccc2n1` [Compound 56], the pIC50 is 5.00 to 7.00.

Turning to `Cc1cc(OC2CCN(Cc3ccccc3C#N)CC2)c2cc(Br)ccc2n1` [Compound 57], the pIC50 was under 4.52.

Turning to `Cc1cc(OC2CCN(Cc3ccccc3)CC2)c2cc(-c3nnn[nH]3)ccc2n1` [Compound 58], the negative logarithm of the IC50 (pIC50) is under 4.52.

Regarding `Cc1cc(OC2CCN(Cc3ccccc3-c3nnn[nH]3)CC2)c2cc(Br)ccc2n1` [Compound 59], the pIC50 is under 4.52.

With `Cc1cc(OC2CCN(Cc3ccccc3C#N)CC2)c2cc(C#N)ccc2n1` [Compound 60], the pIC50 was under 4.52.

For `Cc1cc(OC2CCN(Cc3ccccc3C(=O)NCCCC(=O)OCc3ccccc3)CC2)c2cccc(F)c2n1` [Compound 61], the pIC50 was 5.00 to 7.00.

As for `Cc1cc(OC2CCN(Cc3ccccc3C#N)CC2)c2ccccc2n1` [Compound 63], the pIC50 is under 4.52.

As to `COC(=O)c1ccc(CN2CCC(Oc3cc(C)nc4ccccc34)CC2)cc1` [Compound 64], the pIC50 is 4.52 to 4.70.

As to `Cc1cc(OC2CCN(Cc3ccc(F)c(C#N)c3)CC2)c2ccccc2n1` [Compound 65], the pIC50 is under 4.52.

`Cc1cc(OC2CCN(Cc3ccc(C(=O)O)cc3)CC2)c2ccccc2n1` [Compound 66]: the pIC50 is under 4.52.

Consider `Cc1cc(OC2CC(C)N(Cc3ccccc3F)C(C)C2)c2ccccc2n1` (stereo not shown) [Compound 67], for which the pIC50 is under 4.52.

Consider `c1ccc(CN2CCC(Oc3ccnc4ccccc34)CC2)cc1` [Compound 68], for which the pIC50 was 5.00 to 7.00.

Regarding `COc1ccc(CC2CCC(Oc3cc(C)nc4c(F)cccc34)CC2)cc1` (stereo not shown) [Compound 69], the pIC50 was under 4.52.

Turning to `COc1cccc(CN2CCC(Oc3cc(C)nc4c(F)cccc34)CC2)c1` [Compound 70], the pIC50 is 5.00 to 7.00.

In the case of `COc1ncccc1CN1CCC(Oc2cc(C)nc3c(F)cccc23)CC1` [Compound 71], the pIC50 is 5.00 to 7.00.

Take `COc1ccc(CN2CCC(Oc3cc(C)nc4c(F)cccc34)CC2)cn1` [Compound 72]: the pIC50 was under 4.52.

Turning to `Cc1cc(OC2CCN(Cc3ccncc3F)CC2)c2cccc(F)c2n1` [Compound 73], the pIC50 is 4.52 to 4.70.

For the molecule `Cc1cc(OC2CCN(Cc3ccccc3)C3CCCCC23)c2cccc(F)c2n1` (stereo not shown) [Compound 74], the pIC50 was 5.00 to 7.00.

Take `Cc1cc(OC2CCCN(Cc3ccccc3)CC2)c2cccc(F)c2n1` (stereo not shown) [Compound 75]: the pIC50 was under 4.52.

Consider `Cc1cc(OC2CCN(Cc3cccnc3CO)CC2)c2cccc(F)c2n1` [Compound 76], for which the pIC50 is under 4.52.

As for `Cc1cc(OC2CCN(Cc3c(F)cccc3F)CC2)c2cccc(F)c2n1` [Compound 77], the pIC50 is 4.70 to 5.00.

Regarding `Cc1cc(OC2CCN(Cc3ccc(Br)cc3F)CC2)c2cccc(F)c2n1` [Compound 78], the negative logarithm of the IC50 (pIC50) is 4.52 to 4.70.

With `Cc1cc(OC2CCN(Cc3ccccc3)CC2)c2ccc(F)cc2n1` [Compound 80], the pIC50 is under 4.52.

Consider `COc1cc(OC)c(CN2CCC(Oc3cc(C)nc4c(F)cccc34)CC2)c(C(=O)O)c1` [Compound 81], for which the pIC50 was under 4.52.

On to `Cc1cc(OC2CCN(Cc3ccccc3C(=O)O)C3CCCCC23)c2cccc(F)c2n1` (stereo not shown) [Compound 82], for which the pIC50 is under 4.52.

Turning to `c1ccc(CN2CCC(Oc3nccc4ccccc34)CC2)cc1` [Compound 83], the pIC50 was under 4.52.

Take `Cc1cc(OC2CCN(Cc3ccc4ccccc4c3)CC2)c2cccc(F)c2n1` [Compound 84]: the pIC50 was under 4.52.

For `Cc1cc(OC2CCN(Cc3cccc(OCc4ccccc4)c3)CC2)c2ccccc2n1` [Compound 85], the pIC50 is under 4.52.

Regarding `Cc1cc(OC2CCN(Cc3ccc4c(c3)OCO4)CC2)c2ccccc2n1` [Compound 86], the pIC50 was 4.70 to 5.00.

Consider `COc1ccc2cc(CN3CCC(Oc4cc(C)nc5c(F)cccc45)CC3)ccc2c1` [Compound 87], for which the pIC50 was 4.70 to 5.00.

For the molecule `Cc1cc(OC2CCN(Cc3ccc(O)c(O)c3)CC2)c2ccccc2n1` [Compound 88], the pIC50 was 5.00 to 7.00.

`c1ccc(CN2CCC(Oc3c4ccccc4nc4ccccc34)CC2)cc1` [Compound 89]: the pIC50 was under 4.52.

As for `Cc1cc(OC2CCN(Cc3ccc(O)c(C(=O)O)c3)CC2)c2cccc(F)c2n1` [Compound 90], the negative logarithm of the IC50 (pIC50) is at most 4.52.

Consider `COc1cccc2c(OC3CCN(Cc4ccccc4C#N)CC3)cc(C)nc12` [Compound 91], for which the negative logarithm of the IC50 (pIC50) is under 4.52.

As to `Cc1cc(OC2CCN(Cc3cccc(C(=O)O)c3)CC2)c2cc(O)ccc2n1` [Compound 92], the pIC50 is under 4.52.

In the case of `COc1cccc2c(OC3CCN(Cc4ccccc4-c4nnn[nH]4)CC3)cc(C)nc12` [Compound 93], the pIC50 was 4.52 to 4.70.

As for `Cc1cc(OC2CCN(Cc3ccccc3-c3nnn[nH]3)CC2)c2cc(F)ccc2n1` [Compound 94, 4-(1-(2-(1H-tetrazol-5-yl)benzyl)piperidin-4-yloxy)-6-fluoro-2-methylquinoline], the pIC50 was 5.00 to 7.00.

Consider `COc1ccc(F)c2c(OC3CCN(Cc4ccccc4-c4nnn[nH]4)CC3)cc(C)nc12` [Compound 95], for which the pIC50 was 5.00 to 7.00.

As to `Cc1cc(OC2CCN(Cc3ccc(C(=O)O)cc3)CC2)c2cc(O)ccc2n1` [Compound 96], the pIC50 was under 4.52.

Turning to `Cc1cc(OC2CCN(Cc3ccccc3-c3nnn[nH]3)CC2)c2cc(Cl)ccc2n1` [Compound 100], the pIC50 was 5.00 to 7.00.

The next assay concerns acute paw inflammation caused by intraplantar injection of λ-carrageenan. The experiment in a line: Carrageenan model for pain (Example 8). The assay is classed as in vivo. To be noted: rat; 30 and 100 mg/kg SC, 30 min prior to carrageenan; 4 h post-carrageenan. The method, then: Acute inflammatory hyperalgesia is induced in rats by unilateral injection of 150 μl of a 3% solution of λ-carrageenan into the plantar surface of the left hind paw 3-5 hours prior to testing. Thermal hyperalgesia, mechanical allodynia, mechanical hyperalgesia, weight bearing asymmetry and paw inflammation were determined. Rats are pretreated with test compounds either administered intravenously (IV), by subcutaneous injection (SC) or by oral gavage (PO).
Thermal nociceptive thresholds are determined according to the method described elsewhere (Hargreaves et al., 1988). Briefly, through the glass surface, a radiant heat source (8V, 50 W projector bulb) is focused onto the plantar surface of the hind paw. The rat's paw-withdrawal latency to this stimulus is recorded to the nearest 0.1 s. Each latency score is an average of three trials, which are separated by at least 5 min. In all rats, both the injured and uninjured hind paws are similarly tested, allowing direct comparisons between inflamed and non-inflamed paws. […]
Mechanical hyperalgesia is determined by measuring the difference of withdrawal thresholds in response to increasing pressure in the inflamed vs contralateral paw using the Randall-Sellito Paw pressure meter (IITC Life Science) (Randall L O and Sellito J J., 1957). Briefly, rats are held in a contention jacket suspended by a stand and allowed to acclimate for 10 min. Then the tips of the paw pressure applicator are positioned close to the middle of the plantar and the dorsal area of the paw, avoiding the saphenous nerve innervations and an increasing pressure is applied until the rat removes it. Measures are performed in triplicate for each paw by alternating each paw with an interval of at least 1 min to avoid sensitization. […]
Carrageenan induced paw oedema is measured with a plethysmometer (IITC Life Science). Briefly, a mark is made on the ankles of the rat and the ipsi and contralateral paw are submerged 3 times into water up to the mark in order to determine the paw volume by calculation of water displacement.
For `Cc1cc(OC2CCN(Cc3ccccc3-c3nnn[nH]3)CC2)c2cc(F)ccc2n1` [Compound 94, 4-(1-(2-(1H-tetrazol-5-yl)benzyl)piperidin-4-yloxy)-6-fluoro-2-methylquinoline], the mechanical hyperalgesia result is reported as “dose-dependently reversed”, the “size of the inflammation” value is recorded as “reduced” and the thermal hyperalgesia result is reported as “dose-dependently reversed”.
